Patent publication US8513418B2, “Substituted bicyclic methyl amine derivatives as sphingosine-1 phosphate receptors modulators” (Allergan, Inc., priority 2011, dated 2013)

System: female C57BL6 mice
Assay: Lymphopenia assay in mice (in vivo blood lymphocyte depletion)
Settings: after 24 hours; after dosing; FIG. 1 legend
Experimental: Test drugs are prepared in a solution containing 3% (w/v) 2-hydroxy propyl β-cyclodextrin (HPBCD) and 1% DMSO to a final concentration of 1 mg/ml, and subcutaneously injected to female C57BL6 mice (CHARLES RIVERS) weighing 20-25 g at the dose of 10 mg/Kg. Blood samples are obtained by puncturing the submandibular skin with a Goldenrod animal lancet at 5, 24, 48, 72, and 96 hrs post drug application. Blood is collected into microvettes (SARSTEDT) containing EDTA tripotassium salt. Lymphocytes in blood samples are counted using a HEMAVET Multispecies Hematology System, HEMAVET HV950FS (Drew Scientific Inc.). (Hale, J. et al Bioorg. & Med. Chem. Lett. 14 (2004) 3351).
A lymphopenia assay in mice, as previously described, was employed to measure the in vivo blood lymphocyte depletion after dosing Compound 5 (FIG. 1). These S1P agonists (or modulators) are useful for S1P-related diseases, and exemplified by the lymphopenia in vivo response. In general, test compounds were prepared in a solution containing 3% (w/v) 2-hydroxy propyl β-cyclodextrin (HPBCD) and 1% DMSO to a final concentration of 1 mg/ml, and subcutaneously injected to female C57BL6 mice (CHARLES RIVERS) weighing 20-25 g at the dose of 10 mg/Kg or 2 mg/Kg. […] Lymphocytes in blood samples were counted using a HEMAVET Multispecies Hematology System, HEMAVET HV950FS (Drew Scientific Inc.).

Row | Compound | lymphocyte count
1 | O=P(O)(O)CCCNCc1ccc(CCCCCCCc2ccccc2)c2cccnc12 [Compound 5, [3-({[5-(7-phenylheptyl)quinolin-8-yl]methyl}amino)propyl]phosphonic acid] | lowered lymphocyte count

Same assay, conditions: after 24 hours; subcutaneously injected, 10 mg/Kg or 2 mg/Kg; FIG. 1

Row | Compound | number of lymphocytes
2 | O=P(O)(O)CCCNCc1ccc(CCCCCCCc2ccccc2)c2cccnc12 [Compound 5, [3-({[5-(7-phenylheptyl)quinolin-8-yl]methyl}amino)propyl]phosphonic acid] | < 1 10^3/μL blood

Target: T1, human S1P1 receptor (Homo sapiens, UniProt P21453)
T1 construct: expressed in transfected cells; membranes of cells stably expressing the receptor
Assay: GTP γ35S binding assay for S1P1 activity
Format: biochemical
Settings: membranes of cells stably expressing the S1P1 receptor
Experimental: Novel compounds were synthesized and tested for S1P1 activity using the GTP γ^35S binding assay. These compounds may be assessed for their ability to activate or block activation of the human S1P1 receptor in cells stably expressing the S1P1 receptor. GTP γ^35S binding was measured in the medium containing (mM) HEPES 25, pH 7.4, MgCl2 10, NaCl 100, dithitothreitol 0.5, digitonin 0.003%, 0.2 nM GTP γ^35S, and 5 μg membrane protein in a volume of 150 μl. Test compounds were included in the concentration range from 0.08 to 5,000 nM unless indicated otherwise. Membranes were incubated with 100 μM 5′-adenylylimmidodiphosphate for 30 min, and subsequently with 10 μM GDP for 10 min on ice. Drug solutions and membrane were mixed, and then reactions were initiated by adding GTP γ^35S and continued for 30 min at 25° C. Reaction mixtures were filtered over Whatman GF/B filters under vacuum, and washed three times with 3 mL of ice-cold buffer (HEPES 25, pH7.4, MgCl2 10 and NaCl 100). Filters were dried and mixed with scintillant, and counted for ^35S activity using a 8-counter. Agonist-induced GTP γ^35S binding was obtained by subtracting that in the absence of agonist. Binding data were analyzed using a non-linear regression method. In case of antagonist assay, the reaction mixture contained 10 nM […] in the presence of test antagonist at concentrations ranging from 0.08 to 5000 nM.
Activity potency: S1P1 receptor from GTP γ^35S: nM, (EC50).

T1 sequence (P21453 whole entry): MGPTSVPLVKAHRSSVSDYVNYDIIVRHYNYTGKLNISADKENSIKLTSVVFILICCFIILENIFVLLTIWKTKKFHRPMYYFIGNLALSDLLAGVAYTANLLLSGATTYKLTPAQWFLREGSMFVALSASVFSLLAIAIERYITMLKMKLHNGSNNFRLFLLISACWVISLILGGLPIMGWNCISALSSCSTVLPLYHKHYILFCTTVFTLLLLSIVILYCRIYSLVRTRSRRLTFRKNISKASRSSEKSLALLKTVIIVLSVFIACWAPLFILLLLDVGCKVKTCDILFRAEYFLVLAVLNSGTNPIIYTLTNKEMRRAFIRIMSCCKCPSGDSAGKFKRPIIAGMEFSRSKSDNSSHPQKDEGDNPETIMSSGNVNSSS

Row | EC50 | Compound
3 | 18.3 nM | COc1cccc(CCCCC#Cc2ccc(CNCCCP(=O)(O)O)c3ncccc23)c1 [Compound 12, {3-[({5-[6-(3-methoxyphenyl)hex-1-yn-1-yl]quinolin-8-yl}methyl)amino]propyl}phosphonic acid]
4 | 4.88 nM | O=P(O)(O)CCCNCc1ccc(C#CCCCCc2ccccc2)c2ccccc12 [Compound 16, [3-({[4-(6-phenylhex-1-yn-1-yl)-1-naphthyl]methyl}amino)propyl]phosphonic acid]
5 | 5.59 nM | O=P(O)(O)CCCNCc1ccc(CCCCCCc2ccccc2)c2ccccc12 [Compound 19, [3-({[4-(6-phenylhexyl)-1-naphthyl]methyl}amino)propyl]phosphonic acid]
6 | 138 nM | CCCCCCCC/C=C/c1ccc(CNCCCP(=O)(O)O)c2ccccc12 [Compound 15, {3-[({4-[(1E)-dec-1-en-1-yl]-1-naphthyl}methyl)amino]propyl}phosphonic acid]
7 | 204 nM | O=P(O)(O)CCCNCc1ccc(C#CCCCCc2ccccc2)c2cccnc12 [Compound 4, [3-({[5-(6-phenylhex-1-yn-1-yl)quinolin-8-yl]methyl}amino)propyl]phosphonic acid]
8 | 543 nM | O=P(O)(O)CCCNCc1ccc(C#CCCCc2ccccc2)c2cccnc12 [Compound 8, [3-({[5-(5-phenylpent-1-yn-1-yl)quinolin-8-yl]methyl}amino)propyl]phosphonic acid]
9 | 7.68 nM | COc1cccc(CCCCCCc2ccc(CNCCCP(=O)(O)O)c3ncccc23)c1 [Compound 13, {3-[({5-[6-(3-methoxyphenyl)hexyl]quinolin-8-yl}methyl)amino]propyl}phosphonic acid]
10 | 173 nM | O=P(O)(O)CCCNCc1ccc(CCCCCCCc2ccccc2)c2cccnc12 [Compound 5, [3-({[5-(7-phenylheptyl)quinolin-8-yl]methyl}amino)propyl]phosphonic acid]
11 | 55.5 nM | O=P(O)(O)OCCNCc1ccc(CCCCCCc2ccccc2)c2ccccc12 [Compound 18, 2-({[4-(6-phenylhexyl)-1-naphthyl]methyl}amino)ethyl dihydrogen phosphate]
12 | 94 nM | O=P(O)(O)CCCNCc1ccc(C#CCCCCCc2ccccc2)c2cccnc12 [Compound 3, [3-({[5-(7-phenylhept-1-yn-1-yl)quinolin-8-yl]methyl}amino)propyl]phosphonic acid]
13 | 1.53 nM | CCCCCCCCCCc1ccc(CNCCCP(=O)(O)O)c2ncccc12 [Compound 1, (3-{[(5-decylquinolin-8-yl)methyl]amino}propyl)phosphonic acid]
14 | 3.39 nM | CCCCCCCCC#Cc1ccc(CNCCCP(=O)(O)O)c2ncccc12 [Compound 2, (3-{[(5-dec-1-yn-1-ylquinolin-8-yl)methyl]amino}propyl)phosphonic acid]
15 | 5.45 nM | O=P(O)(O)CCCNCc1ccc(CCCCCCc2ccccc2)c2cccnc12 [Compound 7, [3-({[5-(6-phenylhexyl)quinolin-8-yl]methyl}amino)propyl]phosphonic acid]
16 | 2.19 nM | O=P(O)(O)OCCNCc1ccc(CCCCCCc2ccccc2)c2cccnc12 [Compound 11, 2-({[5-(6-phenylhexyl)quinolin-8-yl]methyl}amino)ethyl dihydrogen phosphate]
